Assay [1] relates to pentylenetetrazole-induced clonic convulsion. Put plainly: Activity on pentylenetetrazole-induced clonic convulsion (anti-PTZ activity). The assay is classed as in vivo, mouse (Std-ddY male). Conditions: Mus musculus, 2 hours before pentylenetetrazole 85 mg/kg s.c., observed 30 minutes, read-out: Number of mice having antagonistic activity/number of test mice (converted); for responders at 2 mg/kg: 2 mg/kg oral; for responders at 50 mg/kg: 50 mg/kg oral; for responders at 10 mg/kg: 10 mg/kg oral; for responders at 20 mg/kg: 20 mg/kg oral. As to the method:
Experiment 2 Activity on pentylenetetrazole-induced clonic convulsion (anti-PTZ activity)
The activity on pentylenetetrazole-induced clonic convulsion of the test compound was tested according to the method of E. A. Swinyard (cf. Anticonvulsant Drugs. Mercier, J., Ed., pp. 47-65, Pergamon Press, New York (1973)). In this test, petit real-type antiepileptics and most of benzodiazepine drugs show positive results.
A test compound was administered orally to Std-ddY male mice (weight; 20-25 g, five mice/group). […] When no clonic convulsion was observed, it was determined that the test compound had antagonistic activity.

The target in assay [2] is benzodiazepine receptor. Put plainly: Benzodiazepine receptor binding assay ([^3 H]-diazepam). Particulars: [^3 H]-diazepam 1.5 nM, rat brain crude synaptosome membrane, pH 7.4, 0° C., 20 minutes.

The structures appear in SMILES notation.

Consider `COc1nnc(-c2cc3c([nH]c2=O)CCN(Cc2c(F)cccc2F)C3)o1` [Example 35], for which the responders at 2 mg/kg in assay [1] is 100%.
On to `Cc1ccc(CN2CCc3[nH]c(=O)c(-c4nnc(C5CC5)o4)cc3C2)cc1` [Example 80], for which the responders at 50 mg/kg in assay [1] was 80%.
Turning to `COc1nnc(-c2cc3c([nH]c2=O)CCN(Cc2cccc(Cl)c2F)C3)o1` [Example 32], the IC50 (as a rule, the concentration at which inhibition is half-maximal) in assay [2] was found to be 2.49 nM.
The same measure, in the same setting: as for `O=c1[nH]c2c(cc1-c1nc(C3CC3)no1)CN(Cc1ccccc1F)CC2` [Example 157], the figure is 2.71 nM; as for `O=c1[nH]c2c(cc1-c1noc(-c3cccs3)n1)CN(Cc1ccccc1)CC2` [Example 123], 12.5 nM.
The same measure, in the same setting: as for `O=c1[nH]c2c(cc1-c1nc(C3CC3)no1)CN(Cc1ccccc1Br)CC2` [Example 155], the figure is 6.08 nM.
For `COc1nnc(-c2cc3c([nH]c2=O)CCN(Cc2ccccc2C(F)(F)F)C3)o1` [Example 33], in assay [1], the responders at 10 mg/kg was 80%.
As for `C=C(C)c1nnc(-c2cc3c([nH]c2=O)CCN(Cc2ccccc2)C3)o1` [Example 111, 6-benzyl-3-(5-isopropenyl-1,3,4-oxadazol-2-yl)-5,6,7,8-tetrahydro-1,6-naphthyridin-2(1H)-one], the responders at 50 mg/kg in assay [1] is 100%.
As for `O=c1[nH]c2c(cc1-c1nc(C3CC3)no1)CN(Cc1ccccc1Cl)CC2` [Example 152], the IC50 in assay [2] stood at 4.9 nM.
Take `COc1nnc(-c2cc3c([nH]c2=O)CCN(Cc2cccc([N+](=O)[O-])c2)C3)o1` [Example 23]: the responders at 10 mg/kg in assay [1] is 80%.
As for `O=c1[nH]c2c(cc1-c1nc(C3CC3)no1)CN(Cc1cccc(Cl)c1)CC2` [Example 153], the IC50 in assay [2] was 3.51 nM.
Take `COc1ccc(CN2CCc3[nH]c(=O)c(-c4nnc(C5CC5)o4)cc3C2)cc1` [Example 85]: the responders at 50 mg/kg in assay [1] is 80%.
Consider `O=c1[nH]c2c(cc1-c1nnc(-c3ccccc3)o1)CN(Cc1ccccc1)CC2` [Example 58], for which the IC50 in assay [2] turned out to be 14.6 nM.
Turning to `Cc1nc(-c2cc3c([nH]c2=O)CCN(Cc2ccccc2)C3)no1` [Example 122], in assay [1], the responders at 10 mg/kg is 100%. Further, in assay [2], the IC50 was determined as 5.96 nM.
Turning to `CC(C)c1nnc(-c2cc3c([nH]c2=O)CCN(Cc2ccccc2)C3)o1` [Example 56], the responders at 50 mg/kg in assay [1] is 80%. The molecule further showed an IC50 in assay [2] of 35.1 nM.
Consider `O=c1[nH]c2c(cc1-c1noc(C3CC3)n1)CN(Cc1ccccc1)CC2` [Example 119, 6-benzyl-3-(5-cyclopropyl-1,2,4-oxadiazol-3-yl)-5,6,7,8-tetrahydro-1,6-naphthyridin-2(1H)-one], for which the responders at 10 mg/kg in assay [1] was 100%. In assay [2], this molecule returned an IC50 of 1.29 nM.
Consider `COc1nnc(-c2cc3c([nH]c2=O)CCN(Cc2ccccc2Br)C3)o1` [Example 26], for which the responders at 2 mg/kg in assay [1] is 60%. The molecule further registered an IC50 in assay [2] of 14.1 nM.
Take `CC(C)c1nc(-c2cc3c([nH]c2=O)CCN(Cc2ccccc2)C3)no1` [Example 124]: in assay [1], the responders at 10 mg/kg is 60%. The molecule also returned an IC50 in assay [2] of 5.4 nM.
Consider `O=c1[nH]c2c(cc1-c1nnc(-c3cccs3)o1)CN(Cc1ccccc1)CC2` [Example 60], for which the responders at 50 mg/kg in assay [1] was 100%. In addition, the IC50 in assay [2] turned out to be 1.58 nM.
With `COc1nnc(-c2cc3c([nH]c2=O)CCN(Cc2ccccc2Cl)C3)o1` [Example 10], the responders at 20 mg/kg in assay [1] is 100%. This molecule registered an IC50 in assay [2] of 6.95 nM.
With `O=c1[nH]c2c(cc1-c1nc(C3CC3)no1)CN(Cc1cccc(Br)c1)CC2` [Example 156], the IC50 in assay [2] was determined as 6.68 nM.
Consider `COc1nnc(-c2cc3c([nH]c2=O)CCN(Cc2ccc(Cl)cc2)C3)o1` [Example 7], for which, in assay [1], the responders at 50 mg/kg was 100%. In assay [2], this molecule registered an IC50 of 13.5 nM.
Take `O=c1[nH]c2c(cc1-c1nc(-c3ccccc3)no1)CN(Cc1ccccc1)CC2` [Example 141, 6-benzyl-3-(3-phenyl-1,2,4-oxadiazol-5-yl)-5,6,7,8-tetrahydro-1,6-naphthyridin-2(1H)-one]: the IC50 in assay [2] is 22.8 nM.
`CCc1nnc(-c2cc3c([nH]c2=O)CCN(Cc2ccccc2)C3)o1` [Example 91]: the responders at 50 mg/kg in assay [1] is 100%. In assay [2], this molecule had an IC50 of 23.1 nM.
As to `O=c1[nH]c2c(cc1-c1nnc(C3CC3)o1)CN(Cc1cccc(Cl)c1)CC2` [Example 83], the responders at 50 mg/kg in assay [1] is 100%.
As to `CCCc1noc(-c2cc3c([nH]c2=O)CCN(Cc2ccccc2)C3)n1` [Example 147], the IC50 in assay [2] was 2.5 nM.
Consider `COc1nnc(-c2cc3c([nH]c2=O)CCN(Cc2ccccc2)C3)o1` [Example 6, 6-benzyl-3-(5-methoxy-1,3,4-oxadiazol-2-yl)-5,6,7,8-tetrahydro-1,6-naphthyridine-2(1H)-one], for which, in assay [1], the responders at 50 mg/kg is 100%. The IC50 in assay [2] came out at 9.91 nM.
With `O=c1[nH]c2c(cc1-c1nc(C3CC3)no1)CN(Cc1cccc(F)c1)CC2` [Example 158], the IC50 in assay [2] was found to be 3.73 nM.
The same measure, in the same setting: as for `O=c1[nH]c2c(cc1-c1nc(-c3cccs3)no1)CN(Cc1ccccc1)CC2` [Example 145], the figure is 8.64 nM.
On the same count and under the same terms, as for `Cc1cccc(CN2CCc3[nH]c(=O)c(-c4nc(C5CC5)no4)cc3C2)c1` [Example 160], the figure is 3.75 nM; as for `Cc1cccc(CN2CCc3[nH]c(=O)c(-c4nnc(C5CC5)o4)cc3C2)c1` [Example 81], 5.17 nM; as for `O=c1[nH]c2c(cc1-c1nnc(-c3ccccc3Cl)o1)CN(Cc1ccccc1)CC2` [Example 61], 6.25 nM.
On the same count and under the same terms, as for `O=c1[nH]c2c(cc1-c1nc(C3CC3)no1)CN(Cc1ccc(Cl)cc1)CC2` [Example 154], the figure is 11 nM; as for `O=c1[nH]c2c(cc1-c1nnc(-c3ccco3)o1)CN(Cc1ccccc1)CC2` [Example 64], 4.09 nM; as for `Cc1ccccc1CN1CCc2[nH]c(=O)c(-c3nc(C4CC4)no3)cc2C1` [Example 159], 8.15 nM.
`COc1cccc(CN2CCc3[nH]c(=O)c(-c4nnc(C5CC5)o4)cc3C2)c1` [Example 86] had an IC50 in assay [2] of 7.91 nM.
Regarding `O=c1[nH]c2c(cc1-c1nnc(C3CC3)o1)CN(Cc1ccccc1)CC2` [Example 55, 6-benzyl-3-(5-cyclopropyl-1,3,4-oxadiazol-2-yl)-5,6,7,8-tetrahydro-1,6-naphthyridin-2(1H)-one], the responders at 50 mg/kg in assay [1] was 100%. Besides, in assay [2], the IC50 stood at 3.91 nM.
Turning to `CCc1nc(-c2cc3c([nH]c2=O)CCN(Cc2ccccc2)C3)no1` [Example 120], the responders at 10 mg/kg in assay [1] is 90%. This molecule returned an IC50 in assay [2] of 4.4 nM.
Turning to `O=c1[nH]c2c(cc1-c1nnc(C(F)(F)F)o1)CN(Cc1ccccc1)CC2` [Example 115], the IC50 in assay [2] is 50.3 nM.
Consider `Cc1cc(-c2nnc(-c3cc4c([nH]c3=O)CCN(Cc3ccccc3)C4)o2)no1` [Example 66], for which, in assay [1], the responders at 50 mg/kg is 100%. For the same molecule, in assay [2], the IC50 was determined as 10.1 nM.
`CC(C)c1noc(-c2cc3c([nH]c2=O)CCN(Cc2ccccc2)C3)n1` [Example 146] showed an IC50 in assay [2] of 9.11 nM.
Still for that read-out and setting: as for `CCCc1nnc(-c2cc3c([nH]c2=O)CCN(Cc2ccccc2)C3)o1` [Example 62], the figure is 13.8 nM; as for `O=c1[nH]c2c(cc1-c1nnc(C3CC3)o1)CN(Cc1ccc(Cl)cc1)CC2` [Example 82], 8.98 nM.
Regarding `COc1nnc(-c2cc3c([nH]c2=O)CCN(Cc2cccc(F)c2)C3)o1` [Example 13], in assay [1], the responders at 20 mg/kg is 100%.
On to `CCc1noc(-c2cc3c([nH]c2=O)CCN(Cc2ccccc2)C3)n1` [Example 142], for which the responders at 10 mg/kg in assay [1] is 80%. In addition, the IC50 in assay [2] turned out to be 3.24 nM.
On to `COc1nnc(-c2cc3c([nH]c2=O)CCN(Cc2cc(F)ccc2Br)C3)o1` [Example 38], for which the responders at 2 mg/kg in assay [1] is 80%. The same molecule had an IC50 in assay [2] of 4.55 nM.
Turning to `O=c1[nH]c2c(cc1-c1nnc(C3CC3)o1)CN(Cc1cccc(F)c1)CC2` [Example 88], the IC50 in assay [2] is 4.62 nM.
Still for that read-out and setting: as for `COc1nnc(-c2cc3c([nH]c2=O)CCN(Cc2cccc(F)c2F)C3)o1` [Example 29], the figure is 5.46 nM.
In the case of `O=c1[nH]c2c(cc1-c1nnc(C3CC3)o1)CN(Cc1ccccc1F)CC2` [Example 89], in assay [1], the responders at 50 mg/kg is 100%.
For `COc1nnc(-c2cc3c([nH]c2=O)CCN(Cc2c(F)ccc(F)c2F)C3)o1` [Example 36], the responders at 2 mg/kg in assay [1] was 100%.
Take `COc1nnc(-c2cc3c([nH]c2=O)CCN(Cc2cc(F)ccc2Cl)C3)o1` [Example 52]: the responders at 10 mg/kg in assay [1] was 100%. Also, the IC50 in assay [2] came out at 19.3 nM.
Taken in the same sequence, the figures for `O=c1[nH]c2c(cc1-c1nc(C3CC3)no1)CN(Cc1ccccc1)CC2` [Example 143] were 60% and 2.19 nM.
As to `COc1cccc(CN2CCc3[nH]c(=O)c(-c4nnc(OC)o4)cc3C2)c1` [Example 17], the responders at 20 mg/kg in assay [1] is 60%.
On to `CCCc1nc(-c2cc3c([nH]c2=O)CCN(Cc2ccccc2)C3)no1` [Example 125], for which, in assay [2], the IC50 is 8.63 nM.
Same read-out and setting: as for `O=c1[nH]c2c(cc1-c1noc(-c3ccccc3)n1)CN(Cc1ccccc1)CC2` [Example 121], the figure is 62.4 nM.

For the origin of these results see patent US5367078A, “3-oxadiazolyl-1,6-naphthyridine derivatives” (Dainippon Pharmaceutical Co., Ltd., priority 1992, dated 1994).
